Measured values reported in patent publication US20230236193A1, “[…] FOR S[…]” (VANDERBILT UNIVERSITY, priority 2020, published 2023).
Values after ≈ are worked out from the molar mass of the structure shown.

B1: GspBSiglec+Unique: wild-type Siglec and Unique domains of GspB from S. gordonii strain M99 (protein)
chain: DTERPVVNVPSEITVYRGESFEYFATVTDNSNAFDLAKTVVRWLYNNQPGRGTEWLQYSVTQVGNQLKVRIFGNVPIDTTIGDYTRYVVATDAAGNVNATQTEMGNAAVDKTSVNGQFKLIIRFRIKTPENTVFVNNPNQLTEVEKNLVREAVKKSNPDLRAQDVLNSNYVTGITVSNNGTTTITYRDGRKDIIDGSKFIDTR

Tests used:
[1] = molecular target: T1, UB10712Siglec+Unique (SLBRUB10712, GST fusion), S. gordonii strain UB10712, variant E285R (Streptococcus mitis, UniProt A0A6I8WFK9); test: ELISA, biotinylated sialoglycan binding to immobilized GST-adhesin
T1 sequence (A0A6I8WFK9 1-210): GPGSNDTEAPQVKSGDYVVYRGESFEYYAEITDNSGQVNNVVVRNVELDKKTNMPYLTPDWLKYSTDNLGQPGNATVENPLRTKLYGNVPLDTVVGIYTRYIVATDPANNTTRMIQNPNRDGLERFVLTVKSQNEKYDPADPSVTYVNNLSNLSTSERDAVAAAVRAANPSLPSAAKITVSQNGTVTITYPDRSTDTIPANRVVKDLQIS
Procedure: (§4) DNA encoding wild-type and variant adhesins were cloned into pGEX-3X. […] DNA encoding adhesin chimeras were cloned into pGEX-3X.
(§5) The pGEX vectors encode an N-terminal glutathione S-transferase (GST) affinity tag, which was used for purification. Individual GST-Siglec+Unique fusions were expressed and purified using glutathione-sepharose, and the binding of biotinylated glycans to immobilized GST-binding regions was performed.

[2] = test system: SK678Siglec+Unique (SLBRSK678, GST fusion), S. sanguinis strain SK678, variant E298R; test: as above; details: for binding selectivity: ELISA; for EC50: ELISA curves
[3] = molecular target: T2, HsaSiglec+Unique (SLBRHsa, GST fusion), wild-type, Streptococcus gordonii strain Challis (Streptococcus gordonii, UniProt A8AWU7); test: as above; details: ligands chosen for costructures
T2 construct: the Siglec and Unique domains of Hsa; made in house
T2 sequence (A8AWU7 220-449 limits assumed): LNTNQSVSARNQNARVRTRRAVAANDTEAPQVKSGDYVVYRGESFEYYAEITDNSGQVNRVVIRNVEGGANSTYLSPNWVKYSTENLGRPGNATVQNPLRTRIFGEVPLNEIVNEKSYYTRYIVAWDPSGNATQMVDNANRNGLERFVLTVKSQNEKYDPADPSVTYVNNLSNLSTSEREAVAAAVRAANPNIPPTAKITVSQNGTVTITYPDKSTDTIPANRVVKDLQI
Procedure: (§1) 19. FIGS. 9A, 9B, 9C, and 9D show the impact of flexibility of sialoglycan binding by HsaBR. […] As a note, Hsa^S253 contains Ramachandran angles in the generously allowed region. FIGS. 9B, 9C, and 9D show dose response curves of wild-type and variant GST-HsaSiglec+Unique (500 nM) immobilized in 96-well plates and binding to 9B. the Neu5Ac-Gal disaccharide, 9C. sialyl-T antigen, and 9D. 3′sialyl-N-acetyllactosamine. Biotinylated sialoglycan ligands were added at the indicated concentrations. Binding is reported as the mean±standard deviation, with n=2.
(§2) 20. FIGS. 10A, 10B, 10C, 10D, and 10E show chimeragenesis of Hsa-like adhesins. Dose-response curves of 10A wild-type GST-SK678Siglec+Unique, 10B wild-type GST-UB10712Siglec+Unique, and 10C wild-type GST-HsaSiglec+Unique to five selected ligands. D and E. Dose-response curves of the chimeras D. GST-SK678^Hsa-loops and E. UB10712^Hsa-loops which contain the CD, EF, and FG loops of Hsa.

[4] = test system: UB10712Siglec+Unique (SLBRUB10712, GST fusion), S. gordonii strain UB10712, chimera +Hsa CD loop; test: ELISA, biotinylated sialoglycan binding to immobilized GST-adhesin chimera; set-up: species or system Streptococcus gordonii strain UB10712; details: +SLBRHsa CD loop; one-point, 1-2 μg/ml biotinylated glycans
Description: (§3) 21. FIGS. 11A, and 11B show chimeras of SRR adhesins. […] Values correspond to the mean±standard deviation, with n=2 (wt) or n=3 (variants). […] Values correspond to the mean±standard deviation, with n=2 (wt) or n=3 (variants).

[5] = test system: UB10712Siglec+Unique (SLBRUB10712, GST fusion), S. gordonii strain UB10712, chimera +Hsa EF loop; test: as above; set-up: species or system Streptococcus gordonii strain UB10712; details: +SLBRHsa EF loop; one-point, 1-2 μg/ml biotinylated glycans
Description: as §3

[6] = test system: UB10712Siglec+Unique (SLBRUB10712, GST fusion), S. gordonii strain UB10712, chimera +Hsa FG loop; test: as above; set-up: species or system Streptococcus gordonii strain UB10712; details: +SLBRHsa FG loop; one-point, 1-2 μg/ml biotinylated glycans
Description: as §3

[7] = molecular target: SK678Siglec+Unique (SLBRSK678, GST fusion), wild-type, Streptococcus sanguinis strain SK678; test: ELISA, biotinylated sialoglycan binding to immobilized GST-adhesin; details: ELISA curves
Description: as §2

[8] = test system: SK678Siglec+Unique (SLBRSK678, GST fusion), S. sanguinis strain SK678, chimera +Hsa CD loop; test: ELISA, biotinylated sialoglycan binding to immobilized GST-adhesin chimera; set-up: species or system Streptococcus sanguinis strain SK678; details: +SLBRHsa CD loop; one-point, 1-2 μg/ml biotinylated glycans
Description: as §3

[9] = test system: SK678Siglec+Unique (SLBRSK678, GST fusion), S. sanguinis strain SK678, chimera +Hsa EF loop; test: as above; set-up: species or system Streptococcus sanguinis strain SK678; details: +SLBRHsa EF loop; one-point, 1-2 μg/ml biotinylated glycans
Description: as §3

[10] = test system: SK678Siglec+Unique (SLBRSK678, GST fusion), S. sanguinis strain SK678, chimera +Hsa FG loop; test: as above; set-up: species or system Streptococcus sanguinis strain SK678; details: +SLBRHsa FG loop; one-point, 1-2 μg/ml biotinylated glycans
Description: as §3

[11] = molecular target: SK678Siglec+Unique (SLBRSK678, GST fusion), S. sanguinis strain SK678, variant Q367D; test: ELISA, biotinylated sialoglycan binding to immobilized GST-adhesin; details: ELISA curves
Procedure: Dose response curves of biotin-glycan binding to immobilized variant SLBRs (500 nM). […] Measurements were performed using 500 nM of immobilized GST-adhesin and the indicated concentrations of each ligand are shown as the mean±SD (n=2).
as §4, §5

[12] = ELISA: sialoglycan binding spectrum of wild-type, chimeric and variant adhesins (several ligands, in words); details: 500 nM immobilized GST-adhesin, compared with wild-type/parent
Procedure: as §1, §2, §3

[13] = previously reported glycan binding/array; cited from earlier work
human plasma proteins = test: Far-western blotting of human plasma proteins with GST-binding regions; details: 15 nM probe
Procedure: Each Far Western was performed at least twice, with a representative blot shown.
Far-western blotting of human plasma proteins using the indicated GST-binding regions (15 nM) as probes was performed as described.

Molecule	binding selectivity [1]	binding selectivity [2]	ligand affinity class [3]	relative binding strength (A450) [4]	relative binding strength (A450) [5]	relative binding strength (A450) [6]	EC50 [7]	relative binding strength (A450) [8]	relative binding strength (A450) [9]	relative binding strength (A450) [10]	EC50 [2]	EC50 [11]	change of sialoglycan binding and selectivity [12]	reported sialoglycan selectivity of wild-type adhesin [13]	plasma glycoprotein bound (human plasma proteins)
CC(=O)N[C@H]1[C@H]([C@H](O)[C@H](O)CO)O[C@@](O[C@H]2[C@@H](O)[C@@H](CO)O[C@@H](O[C@H]3[C@H](O)[C@@H](NC(C)=O)C(O)O[C@@H]3COS(=O)(=O)O)[C@@H]2O)(C(=O)O)C[C@@H]1O (stereo partly drawn) [6S-3′sLn]	became selective	became selective	–	–	–	–	–	–	–	–	–	–	–	–	–
CC(=O)N[C@H]1[C@H]([C@H](O)[C@H](O)CO)O[C@@](O[C@H]2[C@@H](O)[C@@H](CO)O[C@@H](O[C@H]3[C@H](O[C@@H]4O[C@@H](C)[C@@H](O)[C@@H](O)[C@@H]4O)[C@@H](NC(C)=O)C(O)O[C@@H]3COS(=O)(=O)O)[C@@H]2O)(C(=O)O)C[C@@H]1O (stereo partly drawn) [6S-sLe^X]	became selective	became selective	low-affinity	+++ (A450 > 1)	+++ (A450 > 1)	+ (A450 = 0.3-0.7)	0.63 mg/L (≈ 0.699 µM)	− (A450 < 0.3)	++ (A450 = 0.7-1)	− (A450 < 0.3)	0.06 mg/L (≈ 0.0666 µM)	>5 mg/L	–	–	–
CC(=O)N[C@H]1[C@H]([C@H](O)[C@H](O)CO)O[C@@](O[C@H]2[C@@H](O)[C@@H](CO)O[C@@H](O[C@H]3[C@@H](O)[C@@H](CO)OC(O)[C@@H]3NC(C)=O)[C@@H]2O)(C(=O)O)C[C@@H]1O (some centres unmarked) [sTa, Neu5Acα2-3Galβ1-3GalNAc]	–	–	high-affinity	+ (A450 = 0.3-0.7)	+ (A450 = 0.3-0.7)	++ (A450 = 0.7-1)	>5 mg/L	− (A450 < 0.3)	− (A450 < 0.3)	− (A450 < 0.3)	>5 mg/L	>5 mg/L	–	–	–
CC(=O)N[C@H]1[C@H]([C@H](O)[C@H](O)CO)O[C@@](O[C@H]2[C@@H](O)[C@@H](CO)O[C@@H](O[C@H]3[C@H](O)[C@@H](NC(C)=O)C(O)O[C@@H]3CO)[C@@H]2O)(C(=O)O)C[C@@H]1O (some centres unmarked) [3′sLn, Neu5Acα2-3Galβ1-4GlcNAc]	–	–	intermediate-affinity	++ (A450 = 0.7-1)	+++ (A450 > 1)	++ (A450 = 0.7-1)	0.85 mg/L (≈ 1.26 µM)	− (A450 < 0.3)	++ (A450 = 0.7-1)	+ (A450 = 0.3-0.7)	2.60 mg/L (≈ 3.85 µM)	>5 mg/L	–	–	–
CC(=O)N[C@H]1[C@H]([C@H](O)[C@H](O)CO)O[C@@](O[C@H]2[C@@H](O)[C@@H](CO)O[C@@H](O[C@H]3[C@H](O)[C@@H](CO)OC(O)[C@@H]3NC(C)=O)[C@@H]2O)(C(=O)O)C[C@@H]1O (some centres unmarked) [sLe^C, Neu5Acα2-3Galβ1-3GlcNAc]	–	–	high-affinity	− (A450 < 0.3)	+ (A450 = 0.3-0.7)	+ (A450 = 0.3-0.7)	>5 mg/L	− (A450 < 0.3)	− (A450 < 0.3)	− (A450 < 0.3)	>5 mg/L	>5 mg/L	–	–	–
B1	–	–	–	–	–	–	–	–	–	–	–	–	binding preference for sTa	narrow selectivity for the sTa trisaccharide	sTa-modified proteoglycan 4
